Experimental data: PubChem BioAssay AID1417 (Emory University Molecular Libraries Screening Center, 2008)

target: Induced myeloid leukemia cell differentiation protein Mcl-1 (Homo sapiens) (UniProt Q07820); assay: Mcl-1/Noxa binding inhibitor potency, dose response, biochemical, TR-FRET (AID 1417); settings: Mcl-1/Noxa peptide interaction, cell-free TR-FRET (terbium/rhodamine), 2 h; measured here: absolute IC50
Sequence (Q07820 whole entry, looked up): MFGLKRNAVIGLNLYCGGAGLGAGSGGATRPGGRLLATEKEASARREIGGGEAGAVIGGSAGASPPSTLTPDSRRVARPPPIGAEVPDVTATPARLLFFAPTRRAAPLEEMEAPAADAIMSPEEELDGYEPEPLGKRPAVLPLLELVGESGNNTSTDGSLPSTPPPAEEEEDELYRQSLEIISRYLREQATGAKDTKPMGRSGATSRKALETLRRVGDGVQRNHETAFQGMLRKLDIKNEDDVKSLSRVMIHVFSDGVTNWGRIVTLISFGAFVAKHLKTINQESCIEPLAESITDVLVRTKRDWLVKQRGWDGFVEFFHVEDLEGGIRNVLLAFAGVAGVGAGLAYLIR

| Structure (SMILES) | IC50 [nM] |
| --- | --- |
| CCOC(=O)CC1=CSC2=NS(=O)(=O)CCN12 | > 54000 |
| CSC1=N/C(=C\c2ccccc2F)C(=O)S1 | > 54000 |
| CCOC1=C/C(=C/c2c(N)n3nc(-c4ccccc4)sc3nc2=O)C=CC1=O | 2430 |
| COc1cc(/C=C(\C#N)c2nc3ccccc3s2)cc([N+](=O)[O-])c1O | 3370 |
| O=C(Nc1ccc2nc3ccccc3nc2c1)c1ccccc1 | 29600 |
| CNc1ccc(Br)cc(C(=O)/C=C/c2cccc(Cl)c2Cl)c1=O | 439 |
| Cn1c(N)c(C(=O)COC(=O)c2cc(-c3ccco3)nc3ccccc23)c(=O)n(Cc2ccccc2)c1=O | < 400 |
| Cc1ccc(-c2nnc3ccc(SC(C)C(=O)O)nn23)cc1 (configuration not stated) | 4710 |
| CC1=NNC(=O)C1CC(=O)N/N=C(\C)c1ccco1 (configuration not stated) | > 54000 |
| N#Cc1c(NC(=O)c2cccc(S(=O)(=O)Nc3ccc(C(=O)O)cc3)c2)sc2c1CCCC2 | 9510 |
| O=C(N/N=C/c1cccc(F)c1)c1cc(-c2ccco2)nc2ccccc12 | < 400 |
| Cc1cccc2cc(/C=N/NC(=O)c3ccccc3O)c(Cl)nc12 | 6090 |
| CCOC(=O)CSc1nc(N)c(C(=O)Nc2ccc(N(C)C)cc2)s1 | 523 |
| Cc1ccc(-n2nc3cc(C)c(N)cc3n2)cc1 | < 400 |
| CCN(CC)C(=O)COC(=O)c1cc(-c2ccco2)nc2ccccc12 | < 400 |
| CCc1ccc(S(=O)(=O)/N=C2/C=C(Sc3ncn[nH]3)C(=O)c3ccccc32)cc1 | < 400 |
| COc1ccc(/C=C2/C(=O)NC(=S)N(C3CC3)C2=O)cc1CN1C(=O)c2ccccc2C1=O | 3110 |
| Nc1c(C(=O)NCC2CCCO2)sc2nc3c(c(-c4ccco4)c12)CC/C3=C\c1ccco1 (configuration not stated) | 800 |
| O=[N+]([O-])c1cc(Cl)cc(/C=N/NC(=S)Nc2cc(S(=O)(=O)N3CCOCC3)ccc2Cl)c1O | < 400 |
| CSc1nnc(-c2ccco2)c(-c2ccco2)n1 | 13200 |
| O=C(NCCc1ccccc1)c1ccc2nc(-c3ccco3)c(-c3ccco3)nc2c1 | 2000 |
| COc1cnn(-c2ccccc2)c(=O)c1SCc1ccc(Cl)cc1Cl | > 54000 |
| O=c1[nH]c(=S)[nH]c(O)c1N=Nc1ccc(-c2ccccc2)cc1[N+](=O)[O-] | 2990 |
| O=C(Nc1ccccc1)c1ccc2nc(-c3ccco3)c(-c3ccco3)nc2c1 | 3830 |
| [O-][n+]1onc2c1CCC(=N/O)/C2=N\Nc1ccccc1 | 1060 |
| O=C1NC(=S)S/C1=C\c1ccc(SCc2ccco2)o1 | < 400 |

| Structure (SMILES) | IC50 [nM] |
| --- | --- |
| Cc1ccc(-n2cccc2/C=C2\C(=N)N3N=C(c4ccco4)SC3=NC2=O)cc1 | 1530 |
| Cn1c(SCC(=O)Nc2ccc3nc(SCC(=O)N4CCCC4)sc3c2)nnc1-c1ccc(N)cc1 | 688 |
| CC(=O)c1ccc2c(c1)C1C=CCC1C(C(=O)O)N2 (configuration not stated) | < 400 |
| COc1ccc(NC(=O)Cn2ncc(Cl)c(Cl)c2=O)cc1S(=O)(=O)N1CCOCC1 | 4880 |
| O=C1c2ccccc2C(=O)N1/N=C/c1ccc(O)c(O)c1O | < 400 |
| CC1=NN(C(N)=S)C(=O)C1N=Nc1ccc(O)cc1 (configuration not stated) | 11200 |
| O=C(Nc1nc(-c2ccco2)c(-c2ccco2)s1)C1CC(=O)N(c2ccc3c(c2)OCCO3)C1 (configuration not stated) | 5490 |
| Cc1[nH]n(-c2ncc(-c3ccccc3)s2)c(=O)c1C(c1ccc(Br)cc1)C(C#N)C#N (configuration not stated) | 6540 |
| O=C(CNc1ccc2ccccc2c1)N/N=C/C=C/c1cccc([N+](=O)[O-])c1 | 7270 |
| COc1cc(C(c2nnnn2C2CCCC2)N2CCc3ccccc3C2)ccc1O (configuration not stated) | < 400 |
| COc1ccc(/C=C/C(=O)NC(=S)Nc2cc([N+](=O)[O-])ccc2O)cc1OC | 1120 |
| COc1cc(/C=C/C(=O)OCC(=O)Nc2cc(C)c(C)cc2[N+](=O)[O-])ccc1O | 2400 |
| COc1ccc(/C=N/NC(=O)c2cc(O)c(O)c(O)c2)cc1Cn1cc([N+](=O)[O-])cn1 | < 400 |
| COc1ccc(C(c2c(O)cc(C)oc2=O)c2c(O)cc(C)oc2=O)cc1 | > 54000 |
| CNc1sc(C(=O)c2ccccc2F)c(N)c1-c1nc2ccccc2s1 | 5670 |
| O=C1NC(=S)N/C1=C/c1ccc(-c2c(Br)cc([N+](=O)[O-])cc2Br)o1 | 1450 |
| O=C(COc1cccnc1[N+](=O)[O-])c1ccc(Cl)s1 | 2840 |
| O=C(O)c1ccc(N/N=C/c2ccc(-c3cc(Cl)ccc3Cl)o2)cc1 | 1840 |
| COCCn1nnnc1C(c1ccc(O)c(OC)c1)N1CCc2ccccc2C1 (configuration not stated) | < 400 |
| O=C(N/N=C\C=C\c1ccco1)c1cc(-c2ccc3ccccc3c2)n[nH]1 | 2110 |
| CCC(=O)NC1=C(Cl)C(=O)C(NC(=O)CC)=C(Cl)C1=O | < 400 |
| Cc1cccc(/C=C/C(=O)c2ccc(NC3=NCCCS3)cc2)c1 | 4900 |
| Cc1ccc(N=C2NC(=O)/C(=C/C=C/c3ccco3)S2)cc1 | 7160 |
| CCOC(=O)c1c(NC(=O)N/N=C/c2ccc(O)c(OC)c2)sc(C(C)=O)c1C | 1590 |
| COc1cccc(-n2c(SCc3cc(=O)oc4cc(O)c(O)cc34)nc3ccccc3c2=O)c1 | 2180 |
| CCn1c(C)cc(/C=C2\NC(=O)N(Cc3ccc(Cl)cc3)C2=O)c1C | 7520 |
